From patent publication US20260315464A1, “COMPOSITIONS, METHODS, AND SYSTEMS FOR MODULATING SPLICING OF MSH3” (REVIR THERAPEUTICS, INC., priority 2023, published 2026)

System: MSH3
Assay: QPCR assay for levels of MSH3 upon compound treatment in HEK293T or AD293 cells (fold-change of MSH3 transcript, EC50 of MSH3 downregulation; total MSH3 exons 13/14, exons 20/21; Table 8)
Assay type: cell-based
Conditions: for mrna remaining at 1 µM / mrna remaining at 10 µM: Homo sapiens, fold-change of the MSH3 transcript, normalized to GAPDH; for mrna remaining at 1 µM: 1 μM compound; for mrna remaining at 10 µM: 10 μM compound; for EC50: EC50 of MSH3 downregulation, XtalPi
Method in brief: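 HEK293T or AD293 cells were treated at 1 μM and […]; RNA-to-cDNA qPCR used TaqMan assays for total MSH3 (exons 13/14, exons 20/21) and poison-exon junctions exon 13/PE14A and exon 20/PE21A. Transcript levels were normalized to GAPDH.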

Row | Structure (SMILES) | mrna remaining at 1 µM [%] | mrna remaining at 10 µM [%] | EC50 [nM]
1 | Cc1nc(C)c(-c2cnc3c(c2)C(=O)N(c2ccc(O[C@@H]4C[C@]5(C)CC[C@](C)(C4)N5)nn2)C3)s1 [Compound 194, 6-(6-(((1R,3r,5S)-1,5-dimethyl-8-azabicyclo[3.2.1]octan-3-yl)oxy)pyridazin-3-yl)-3-(2,4-dimethylthiazol-5-yl)-6,7-dihydro-5H-pyrrolo[3,4-b]pyridin-5-one] | 224 | 92 | –
2 | Cc1nn(C)nc1-c1cc(Cl)c2c(c1)C(=O)N(c1ccc(OC3CC(C)(C)NC(C)(C)C3)nn1)C2 [Compound 664, 4-chloro-6-(2,5-dimethyl-2H-1,2,3-triazol-4-yl)-2-(6-((2,2,6,6-tetramethylpiperidin-4-yl)oxy)pyridazin-3-yl)isoindolin-1-one] | 94 | 20 | –
3 | Cc1nn(C)nc1-c1cc(F)c2c(c1)C(=O)N(c1ccc(N3CCNC(C)(C)C3)nn1)C2 [Compound 643, 6-(2,5-dimethyl-2H-1,2,3-triazol-4-yl)-2-(6-(3,3-dimethylpiperazin-1-yl)pyridazin-3-yl)-4-fluoroisoindolin-1-one] | 109 | 72 | –
4 | Cc1nc(C)c(-c2cnc3c(c2)C(=O)N(c2ccc(OC4CC(C)(C)NC(C)(C)C4)nn2)C3)s1 [Compound 150, 3-(2,4-dimethylthiazol-5-yl)-6-(6-((2,2,6,6-tetramethylpiperidin-4-yl)oxy)pyridazin-3-yl)-6,7-dihydro-5H-pyrrolo[3,4-b]pyridin-5-one] | 116 | 77 | –
5 | COc1cc(-c2nn(C)nc2Cl)cc2c1CN(c1ccc(O[C@H]3C[C@]4(C)CC[C@](C)(C3)N4)nn1)C2=O [Compound 684, 6-(5-chloro-2-methyl-2H-1,2,3-triazol-4-yl)-2-(6-(((1R,3s,5S)-1,5-dimethyl-8-azabicyclo[3.2.1]octan-3-yl)oxy)pyridazin-3-yl)-4-methoxyisoindolin-1-one] | 133 | 24 | –
6 | CCN1CC2CN(c3ccc(N4Cc5c(F)cc(-c6nn(C)nc6Cl)cc5C4=O)nn3)CC2C1 (centres unmarked) [Compound 654, 6-(5-chloro-2-methyl-2H-1,2,3-triazol-4-yl)-2-(6-(5-ethylhexahydropyrrolo[3,4-c]pyrrol-2(1H)-yl)pyridazin-3-yl)-4-fluoroisoindolin-1-one] | 90 | 61 | –
7 | CC[C@]12CC[C@](C)(C[C@@H](Oc3ccc(N4Cc5ncc(-c6cn(C)nc6C)cc5C4=O)nn3)C1)N2 [Compound 240, 3-(1,3-dimethyl-1H-pyrazol-4-yl)-6-(6-(((1S,3R,5R)-1-ethyl-5-methyl-8-azabicyclo[3.2.1]octan-3-yl)oxy)pyridazin-3-yl)-6,7-dihydro-5H-pyrrolo[3,4-b]pyridin-5-one] | 87 | 16 | 2310
8 | C[C@@H]1CN(c2ccc(N3Cc4c(F)cc(-c5nn(C)nc5Cl)cc4C3=O)nn2)C[C@H](C)N1 [Compound 636, 6-(5-chloro-2-methyl-2H-1,2,3-triazol-4-yl)-2-(6-((3S,5R)-3,5-dimethylpiperazin-1-yl)pyridazin-3-yl)-4-fluoroisoindolin-1-one] | 95 | 41 | –
9 | Cc1cn(-c2cc(C#N)c3c(c2)C(=O)N(c2ccc(N(C)[C@H]4C[C@]5(C)CC[C@](C)(C4)N5)nn2)C3)nn1 [Compound 695, 2-(6-(((1R,3s,5S)-1,5-dimethyl-8-azabicyclo[3.2.1]octan-3-yl)(methyl)amino)pyridazin-3-yl)-6-(4-methyl-1H-1,2,3-triazol-1-yl)-1-oxoisoindoline-4-carbonitrile] | – | – | 11100
10 | CN(c1ccc(N2Cc3ccc(-c4cnn(C)n4)cc3C2=O)nn1)C1CC(C)(C)NC(C)(C)C1 [Compound 370, 2-(6-(methyl(2,2,6,6-tetramethylpiperidin-4-yl)amino)pyridazin-3-yl)-6-(2-methyl-2H-1,2,3-triazol-4-yl)isoindolin-1-one] | 69 | 61 | –
11 | Cc1nn(C)nc1-c1cc(C#N)c2c(c1)C(=O)N(c1ccc(O[C@H]3C[C@]4(C)CC[C@](C)(C3)N4)nn1)C2 [Compound 681, 6-(2,5-dimethyl-2H-1,2,3-triazol-4-yl)-2-(6-(((1R,3s,5S)-1,5-dimethyl-8-azabicyclo[3.2.1]octan-3-yl)oxy)pyridazin-3-yl)-1-oxoisoindoline-4-carbonitrile] | 76 | 8 | –
12 | Cc1nn(C)cc1-c1cc(F)c2c(c1)C(=O)N(c1ccc(O[C@H]3C[C@]4(C)CC[C@@](C)(N4)[C@H]3F)nn1)C2 [Compound 281, 6-(1,3-dimethyl-1H-pyrazol-4-yl)-4-fluoro-2-(6-(((1R,2R,3S,5S)-2-fluoro-1,5-dimethyl-8-azabicyclo[3.2.1]octan-3-yl)oxy)pyridazin-3-yl)isoindolin-1-one] | 85 | 41 | –
13 | Cc1cn(-c2cc(C#N)c3c(c2)C(=O)N(c2ccc(O[C@H]4C[C@]5(C)CC[C@](C)(C4)N5)nn2)C3)nn1 [Compound 591, 2-(6-(((1R,3s,5S)-1,5-dimethyl-8-azabicyclo[3.2.1]octan-3-yl)oxy)pyridazin-3-yl)-6-(4-methyl-1H-1,2,3-triazol-1-yl)-1-oxoisoindoline-4-carbonitrile] | 109 | 91 | 634
14 | Cc1nn(C)cc1-c1cnc2c(c1)C(=O)N(c1ccc(OC3CC(C)(C)NC4(CCC4)C3)nn1)C2 (centres unmarked) [Compound 597, 3-(1,3-dimethyl-1H-pyrazol-4-yl)-6-(6-((6,6-dimethyl-5-azaspiro[3.5]nonan-8-yl)oxy)pyridazin-3-yl)-6,7-dihydro-5H-pyrrolo[3,4-b]pyridin-5-one] | 98 | 29 | –
15 | CN(C)C1CCN(c2ccc(N3Cc4ncc(-c5nn(C)nc5Cl)cc4C3=O)nn2)CC1 [Compound 618, 3-(5-chloro-2-methyl-2H-1,2,3-triazol-4-yl)-6-(6-(4-(dimethylamino)piperidin-1-yl)pyridazin-3-yl)-6,7-dihydro-5H-pyrrolo[3,4-b]pyridin-5-one] | 83 | 68 | –
16 | Cn1cc(-c2cc3c(cn2)CN(c2ccc(O[C@H]4C[C@]5(C)CC[C@](C)(C4)N5)nn2)C3=O)c(F)n1 [Compound 107, 2-(6-(((1R,3s,5S)-1,5-dimethyl-8-azabicyclo[3.2.1]octan-3-yl)oxy)pyridazin-3-yl)-6-(3-fluoro-1-methyl-1H-pyrazol-4-yl)-2,3-dihydro-1H-pyrrolo[3,4-c]pyridin-1-one] | 97 | 75 | –
17 | CN(c1ccc(N2Cc3c(O)cc(-c4nn(C)nc4Cl)cc3C2=O)nn1)[C@H]1C[C@]2(C)CC[C@](C)(C1)N2 [Compound 689, 6-(5-chloro-2-methyl-2H-1,2,3-triazol-4-yl)-2-(6-(((1R,3s,5S)-1,5-dimethyl-8-azabicyclo[3.2.1]octan-3-yl)(methyl)amino)pyridazin-3-yl)-4-hydroxyisoindolin-1-one] | 88 | 27 | –
18 | Cc1nc(C)c(-c2cc(F)c3c(c2)C(=O)N(c2ccc(N(C)[C@H]4C[C@]5(C)CC[C@](C)(C4)N5)nn2)C3)s1 [Compound 289, 2-(6-(((1R,3s,5S)-1,5-dimethyl-8-azabicyclo[3.2.1]octan-3-yl)(methyl)amino)pyridazin-3-yl)-6-(2,4-dimethylthiazol-5-yl)-4-fluoroisoindolin-1-one] | 73 | 22 | –
19 | COc1cc(-c2nn(C)nc2Cl)cc2c1CN(c1ccc(N(C)[C@H]3C[C@]4(C)CC[C@](C)(C3)N4)nn1)C2=O [Compound 686, 6-(5-chloro-2-methyl-2H-1,2,3-triazol-4-yl)-2-(6-(((1R,3s,5S)-1,5-dimethyl-8-azabicyclo[3.2.1]octan-3-yl)(methyl)amino)pyridazin-3-yl)-4-methoxyisoindolin-1-one] | 109 | 26 | –
20 | CN(c1ccc(N2Cc3c(C#N)cc(-c4nnn(C)n4)cc3C2=O)nn1)[C@H]1C[C@]2(C)CC[C@](C)(C1)N2 [Compound 693, 2-(6-(((1R,3s,5S)-1,5-dimethyl-8-azabicyclo[3.2.1]octan-3-yl)(methyl)amino)pyridazin-3-yl)-6-(2-methyl-2H-tetrazol-5-yl)-1-oxoisoindoline-4-carbonitrile] | 94 | 40 | –
21 | Cc1nn(C)cc1-c1ccc2c(c1)C(=O)N(c1ccc(OC3CC(C)(C)NC4(CC4)C3)nn1)C2 (centres unmarked) [Compound 438, 6-(1,3-dimethyl-1H-pyrazol-4-yl)-2-(6-((5,5-dimethyl-4-azaspiro[2.5]octan-7-yl)oxy)pyridazin-3-yl)isoindolin-1-one] | 109 | 81 | –
22 | Cc1nn(C)cc1-c1cc2c(nn1)CN(c1ccc(O[C@H]3C[C@]4(C)CC[C@](C)(C3)N4)nn1)C2=O [Compound 595, 3-(1,3-dimethyl-1H-pyrazol-4-yl)-6-(6-(((1R,3s,5S)-1,5-dimethyl-8-azabicyclo[3.2.1]octan-3-yl)oxy)pyridazin-3-yl)-6,7-dihydro-5H-pyrrolo[3,4-c]pyridazin-5-one] | 91 | 18 | –
23 | CN(c1ccc(N2Cc3c(F)cc(-c4cnn(CC(C)(C)O)c4)cc3C2=O)nn1)[C@H]1C[C@]2(C)CC[C@](C)(C1)N2 [Compound 632, 2-(6-(((1R,3s,5S)-1,5-dimethyl-8-azabicyclo[3.2.1]octan-3-yl)(methyl)amino)pyridazin-3-yl)-4-fluoro-6-(1-(2-hydroxy-2-methylpropyl)-1H-pyrazol-4-yl)isoindolin-1-one] | 72 | 57 | –
